# In the Kinase Knowledgebase extract (Sharma et al. 2016):
# Target: CDK2 (UniProt P24941)
# Assay: Enzyme Assay
row,IC50 [µM],Structure (SMILES)
1,< 50,Cc1ccc(NC(=O)Nc2csc(-c3ccncc3)n2)nc1
2,< 50,O=C(Nc1csc(-c2ccncc2)n1)Nc1nccs1
3,< 50,CN(C(=O)Nc1csc(-c2ccncc2)n1)c1ccccn1
4,< 50,O=C(Nc1ccccn1)Nc1csc(-c2ccncc2)n1
5,< 50,O=C(Nc1cccc(NCCCN2CCOCC2)n1)Nc1csc(-c2ccncc2)n1
6,< 50,CCCc1cccc(NC(=O)Nc2csc(-c3ccnc(CC)c3)n2)n1
7,< 50,CCc1cccc(NC(=O)Nc2csc(-c3ccncc3)n2)n1
8,< 50,O=C(Nc1csc(-c2ccncc2)n1)Nc1cc2ccccc2c(Br)n1
9,< 50,O=C(Nc1cccc(N2CCCCC2)n1)Nc1csc(-c2ccncc2)n1
10,< 50,Cc1cccc(NC(=O)Nc2csc(-c3ccncc3)n2)n1
11,< 50,CCCc1cccc(NC(=O)Nc2csc(-c3ccncc3)n2)n1
12,< 50,Cc1cccc(NC(=O)Nc2csc(-c3cccnc3)n2)n1
13,< 50,CN1CCN(c2cccc(NC(=O)Nc3csc(-c4ccncc4)n3)n2)CC1
14,< 50,CCCc1cccc(NC(=O)Nc2cccc(-c3cccnc3)c2)n1
15,< 50,O=C(Nc1csc(-c2cccnc2)n1)Nc1nccs1
16,< 50,CN(C)CCNc1cccc(NC(=O)Nc2csc(-c3ccncc3)n2)n1

row,IC50 [µM],Structure (SMILES)
1,< 50,O=C(Nc1csc(-c2cccnc2)n1)Nc1csc(-c2cccnc2)n1
2,< 50,O=C(Nc1ccccn1)Nc1csc(-c2ccccn2)n1
3,< 50,O=C(Nc1csc(-c2ccncc2)n1)Nc1ccc2ccccc2n1
4,< 50,O=C(Nc1csc(-c2cccnc2)n1)Nc1nc(-c2ccccc2)cs1
5,< 50,CCN(CC)c1cccc(NC(=O)Nc2csc(-c3ccncc3)n2)n1
6,< 50,O=C(Nc1cccc(N2CCOCC2)n1)Nc1csc(-c2ccncc2)n1
7,< 50,O=C(Nc1csc(-c2ccncc2)n1)Nc1nc(-c2cccnc2)cs1
8,< 50,O=C(Nc1csc(-c2ccncc2)n1)Nc1cccc2[nH]cnc12
9,< 50,Cc1cccnc1NC(=O)Nc1csc(-c2ccncc2)n1
10,< 50,O=C(Nc1ccc(C(F)(F)F)cn1)Nc1csc(-c2ccncc2)n1
11,< 50,O=C(Nc1ccccn1)Nc1csc(-c2cccnc2)n1
12,< 50,CCc1ccnc(NC(=O)Nc2csc(-c3ccncc3)n2)c1
13,< 50,O=C(Nc1csc(-c2ccncc2)n1)Nc1csc(-c2ccncc2)n1
14,< 50,NC(=O)c1ccc(NC(=O)Nc2csc(-c3ccncc3)n2)nc1
15,< 50,CCN(CC)Cc1cccc(NC(=O)Nc2csc(-c3ccncc3)n2)n1
16,< 50,O=C(Nc1csc(-c2cccnc2)n1)Nc1nc(-c2cccnc2)cs1
